As usually defined, the IC50 is the concentration needed to halve the response being measured.

Holding throughout (format): biochemical
The target of one experiment is T1, A. thaliana PRORP1 (Arabidopsis thaliana, UniProt Q66GI4).
T1 construct: made in house
T1 sequence (Q66GI4 77-572): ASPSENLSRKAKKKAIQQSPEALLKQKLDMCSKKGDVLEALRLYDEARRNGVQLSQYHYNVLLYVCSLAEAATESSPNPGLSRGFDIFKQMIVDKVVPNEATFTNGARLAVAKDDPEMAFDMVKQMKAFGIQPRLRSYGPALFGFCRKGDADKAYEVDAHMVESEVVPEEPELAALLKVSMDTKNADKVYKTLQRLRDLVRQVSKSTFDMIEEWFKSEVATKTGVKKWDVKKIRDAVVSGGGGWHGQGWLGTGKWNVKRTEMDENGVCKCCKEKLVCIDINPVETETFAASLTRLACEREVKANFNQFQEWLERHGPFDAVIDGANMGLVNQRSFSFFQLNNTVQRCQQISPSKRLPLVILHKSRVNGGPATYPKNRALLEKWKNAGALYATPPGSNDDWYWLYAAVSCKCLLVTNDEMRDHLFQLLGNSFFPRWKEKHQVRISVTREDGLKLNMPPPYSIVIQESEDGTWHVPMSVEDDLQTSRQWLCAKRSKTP
Kind of experiment: FP cleavage assay, PRORP1 dose response. Conditions: for activity at 6.25 µM: 6.25 μM of inhibitor, FP cleavage assay, read-out: PRORP1 Activity (%); for IC50: 30 min preincubation, 0.3 nM PRORP1, 800 nM pre-tRNA, 25 °C, apparent IC50 for juglone. The procedure:
(§1) Compounds gambogic acid (A) and juglone (B) were incubated with enzyme at double the reaction concentration for 30 min prior to the addition of an equal volume of substrate to initiate the reaction. PRORP1 reactions (shown in green) were performed with 0.3 nM PRORP1 and 800 nM pre-tRNA containing 40 nM Fl-pre-tRNA at 25 °C in 30 mM MOPS pH 7.8, 5 mM MgCl2, 100 mM NaCl, 1 mM TCEP, 500 nM (12 μg/ml) yeast tRNA, 5 mM spermidine, 6.65 μg/ml BSA, and 0.01% NP-40. MRPP1/2/3 reactions (shown in red) were performed using 50 nM MRPP3, 500 nM MRPP1/2, 500 nM pre-tRNA containing 40 nM Fl-pre-tRNA at 37 °C in 50 mM MOPS (pH 7.8), 1 mM TCEP, 4.5 mM MgCl2, and 100 mM NaCl. B. subtilis RNase P reactions (shown in blue) were performed using 20 nM RNase P and 500 nM pre-tRNA containing 40 nM Fl-pre-tRNA at 37 °C in 50 mM Tris, pH 7.2, 5 mM MgCl2, 100 mM KCl, 500 nM (12 μg/ml) yeast tRNA, 20 mM dithiothreitol (DTT), 10 mM spermidine, and 0.01% NP-40. Equation 1 was fit to each dataset.
The activity of PRORP1 catalyzed pre-tRNA cleavage was measured by monitoring the fluorescence anisotropy (FA) signal (λex = 485 nm and λem = 535 nm) over time at 25 °C in buffer conditions optimized for a high-throughput format, 30 mM MOPS pH 7.8, 5 mM MgCl2, 100 mM NaCl, 1 mM TCEP, 500 nM (12 μg/ml) yeast tRNA, 5 mM spermidine, 6.65 μg/ml BSA, and 0.01% NP-40. Yeast tRNA^mix (Roche) was used to reduce the number of compounds that inhibit PRORP1 activity by targeting tRNA. Prior to each reaction, pre-tRNA was heated for 3 min at 95 °C to unfold the RNA and refolded in the reaction buffer at room temperature (25 °C) for 30 min. Reactions were performed in black, 96-well plates (Corning Incorporation, #3686) using a TECAN plate-reader (Infinite F500, G-factor = 1.05) at 25 °C, and the FA values recorded. Reactions were initiated with the addition of substrate to enzyme. Experiments were done in the presence of excess substrate. The concentration of enzyme was 0.3 to 5 nM, the concentration of labeled substrate (Fl-pre-tRNA) was 40 nM, and the concentration of pre-tRNA was 120 to 4000 nM. The concentration of Fl-pre-tRNA was held constant in all reactions.
The dose response was measured using the FP assay as described above with varying concentrations of compound. Compounds were incubated with PRORP1 at twice the reaction concentration for 30 min prior to the addition of equal volumes of substrate to initiate the reaction. Experiments were done under multiple turnover conditions (same buffer conditions as the FP assay). […] PRORP1 activity was determined as a function of inhibitor concentration, and Equation 1 was fit to the data to determine the IC50 value. The standard error of the mean (SEM) is reported from the fit.(1) Activity(%)=100/1+([I]/IC50)^n

The next experiment concerns the target T2, B. subtilis RNase P (Bacillus subtilis, UniProt P25814).
T2 construct: made in house
Kind of experiment: B. subtilis RNase P activity assay (FP, real-time). The procedure: as §1, with “Figure 4 Gambogic acid and juglone inhibit A. thaliana PRORP1 (green), human MRPP1/2/3 (red), and B. subtilis RNase P (blue). Compounds” for “Compounds”
The inhibition of B. subtilis RNase P activity by gambogic acid and juglone was measured using a previously developed FP assay in real-time.^25 Reactions were performed under multiple turnover conditions using 20 nM RNase P and 500 nM Fl-pre-tRNA^Asp in 50 mM Tris (pH 7.2), 5 mM MgCl2, 100 mM KCl, 500 nM (12 μg/ml) yeast tRNA^mix, 20 mM dithiothreitol, 10 mM spermidine, and 0.01% NP-40 at 37 °C.

A further experiment concerns T. maritima RNase P. Kind of experiment: T. maritima RNase P inhibition (literature). The settings on record: own PRORP IC50 against the cited T. maritima IC50 of 12.8 μM (ref 28).

The structures appear in SMILES notation.

T2 sequence (P25814 whole entry): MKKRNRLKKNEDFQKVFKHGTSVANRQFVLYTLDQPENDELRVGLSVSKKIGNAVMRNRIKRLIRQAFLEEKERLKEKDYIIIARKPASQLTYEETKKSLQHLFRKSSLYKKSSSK

On to `CC(C)=CCC[C@]1(C)C=Cc2c(O)c3c(c(CC=C(C)C)c2O1)O[C@]12C(=C[C@@H]4C[C@H]1C(C)(C)O[C@@]2(C/C=C(/C)C(=O)O)C4=O)C3=O` [gambogic acid], for which, at A. thaliana PRORP1, the activity at 6.25 µM came out at 29.1% and the IC50 was found to be 1.01 ± 0.04 µM. The same compound had an IC50 on B. subtilis RNase P of 50 ± 2 µM.

Regarding `O=C1C=CC(=O)c2c(O)cccc21` [juglone, 5-hydroxy-1,4-naphthalenedione], at A. thaliana PRORP1, the activity at 6.25 µM is 20.2% and the concentration for half-maximal inhibition (IC50) was 2.1 ± 0.04 µM. For the same compound, in the experiment with T. maritima RNase P, the “times more potent against PRORP than T. maritima RNase P” value is listed as “about 10 times”. Also, the IC50 against B. subtilis RNase P was above 500 µM.

The values above are taken from article PMC9731865, “Gambogic acid and juglone inhibit RNase P through distinct mechanisms” (The Journal of Biological Chemistry, 2022).
